≈ marks a conversion by molar mass, not a printed value. Where “and” joins values, the source holds several entries; their conditions need not be identical. Equal entries are not always repeated. Where two headings read alike, the source gives them in different places.
Experiments:
[1] = target: T1, beta-catenin/TCF4 engagement (Homo sapiens, UniProt P35222); assay: Nano-BRET target engagement assay (B-cat-Halo & TCF4-Luc in HEK293 cells); format: cell-based
T1 construct: expressed in transfected cells; host or cells: HEK293
T1 sequence (P35222 1-781): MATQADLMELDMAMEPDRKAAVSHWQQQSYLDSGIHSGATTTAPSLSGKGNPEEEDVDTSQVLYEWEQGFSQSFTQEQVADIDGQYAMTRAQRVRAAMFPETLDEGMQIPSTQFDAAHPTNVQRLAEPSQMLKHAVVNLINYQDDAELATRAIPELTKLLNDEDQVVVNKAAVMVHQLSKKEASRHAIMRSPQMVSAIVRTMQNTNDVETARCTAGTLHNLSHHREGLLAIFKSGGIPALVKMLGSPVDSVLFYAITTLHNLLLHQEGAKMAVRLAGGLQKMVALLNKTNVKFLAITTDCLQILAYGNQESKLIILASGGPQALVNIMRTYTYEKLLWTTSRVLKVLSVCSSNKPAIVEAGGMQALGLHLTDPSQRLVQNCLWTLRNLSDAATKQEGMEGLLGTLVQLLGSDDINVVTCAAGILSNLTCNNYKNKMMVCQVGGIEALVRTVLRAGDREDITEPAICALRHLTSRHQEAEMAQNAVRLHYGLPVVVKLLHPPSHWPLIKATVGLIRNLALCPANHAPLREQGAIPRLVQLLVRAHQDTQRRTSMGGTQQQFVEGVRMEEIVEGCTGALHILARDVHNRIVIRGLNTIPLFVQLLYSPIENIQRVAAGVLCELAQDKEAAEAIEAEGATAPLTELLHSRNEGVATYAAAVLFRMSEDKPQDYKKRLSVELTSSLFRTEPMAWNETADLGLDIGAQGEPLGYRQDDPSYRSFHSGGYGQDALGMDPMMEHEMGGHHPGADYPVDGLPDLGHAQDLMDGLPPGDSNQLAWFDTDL

[2] = CHI Log D procedure; format: physicochemical; conditions: for CHI Log D: pH 7.4; for chromatographic logD: pH 7.4, CHI Log D
[3] = tested on: TCF/LEF luciferase Reporter in DLD1 cells; assay: TCF reporter assay (DLD1 TCF/LEF luciferase reporter, Bright-Glo); format: cell-based; conditions: for DLD1 TCF c2 BrightGlo % Inhibition: replicates
How it was run: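 DLD1 cells stably carrying a TCF/LEF luciferase reporter were plated at 5000 cells/well in RPMI + 4% FBS and treated overnight with a 1:2 compound dilution series. Bright-Glo luminescence read on day 3; viability by CellTiter-Glo. Absolute IC50 determined.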

[4] = Solubility in PBS; format: physicochemical
How it was run: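 The PBS solution was ultracentrifuged and the supernatant analyzed by HPLC. Its peak area was divided by that of a 50 μM peptide DMSO reference injection and multiplied by 50 uM to give solubility.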

[5] = target: T2, full-length beta-Catenin (Uniprot ID P35222) (Homo sapiens, UniProt P35222); assay: Fluorescence polarization IC50 (beta-catenin / 5FAM-TCF4 10-53 competition); format: binding
T2 construct: 10 nM full-length beta-Catenin (Uniprot ID P35222)
T2 sequence (P35222 1-781): T1 sequence (P35222 1-781)

[6] = absolute IC50, read-out: NanoBRET Abs IC50
[7] = absolute IC50, read-out: DLD1 reporter assay Abs IC50
[8] = first dose = 20 uM (plate map), 20 µM
[9] = read-out: DLD1 4% Abs IC50, DLD1 4%
[10] = third dose = 5 uM (plate map), 5 µM
[11] = fluorescence polarization, beta-catenin, read-out: FP EC50
[12] = fluorescence polarization, read-out: beta-Catenin FP IC50
[13] = Peptide + ST-Protein (SAINT-Protein lipid)

Compound | IC50 [1, 6] [µM] | CHI Log D [2] | IC50 [3, 7] [µM] | IC50 [3, 9] [µM] | Solubility [4] [µM] | IC50 [5, 11] [nM] | IC50 ([5]; read-out: beta-Catenin FP IC50) [nM] | chromatographic logD [2] | further results
CC(=O)N1CCC[C@]12CC=CCCCC1(CCCC=CCCCCCC[C@@](C)(C(=O)N[C@@H](Cc3ccccc3Cl)C(=O)N[C@@H](Cc3csc4ccccc34)C(=O)N[C@@H](CCO)C(N)=O)NC(=O)[C@H](CO)NC(=O)[C@H](Cc3ccccc3)NC(=O)[C@H](C)NC(=O)[C@H](C)NC(=O)[C@H](CN(CC(=O)O)CC(F)(F)F)NC(=O)[C@H](CC(=O)O)NC1=O)NC(=O)[C@H](CC(C)(C)C)NC(=O)[C@H](CC(=O)O)NC2=O (single isomer, unassigned) [I-999, Ac-PL3-Asp-Npg-B5-Asp-TfeGA-Ala-Ala-Phe-Ser-S8-2C1F-BztA-Hse-NH2] | 26.3 | 2.941 | 11.1 | 5.6 | 30 (≈ 58.8 µg/mL) | 26 | 26 |  | IC50 ([1]; read-out: NanoBRET Abs IC50): 26.3 µM; DLD1 TCF c2 BrightGlo % Inhibition [3, 8]: 63.2% and 71.4% and 68.9%; DLD1 TCF c2 BrightGlo % Inhibition ([3]; 0.625 µM): 7.7% and 8.8% and 6.4%; DLD1 TCF c2 BrightGlo % Inhibition ([3]; 1.25 µM): 1.7% and 8.0% and 4.0%; DLD1 TCF c2 BrightGlo % Inhibition ([3]; 2.5 µM): 14.3% and 11.9% and 4.4%; DLD1 TCF c2 BrightGlo % Inhibition ([3]; 10 µM): 42.0% and 49.2% and 49.7%; DLD1 TCF c2 BrightGlo % Inhibition [3, 10]: 18.2% and 32.5% and 23.9%
CC(=O)N1CCC[C@]12CC=CCCCC1(CCCC=CCCCCCC[C@@](C)(C(=O)N[C@@H](Cc3ccccc3)C(=O)N[C@@H](Cc3csc4ccccc34)C(=O)N[C@@H](CCC(N)=O)C(N)=O)NC(=O)[C@H](CCC(N)=O)NC(=O)[C@H](Cc3ccccc3)NC(=O)[C@H](C)NC(=O)[C@H](C)NC(=O)[C@H](CCC(=O)O)NC(=O)[C@H](CC(=O)O)NC1=O)NC(=O)[C@H](CC(C)C)NC(=O)[C@H](CC(=O)O)NC2=O (stereo partly drawn) [I-505, Ac-PL3-Asp-Leu-B5-Asp-Glu-Ala-Ala-Phe-Gln-S8-Phe-BztA-Gln-NH2] | 4.9 | 2.259 |  |  | 50 (≈ 94.2 µg/mL) |  |  |  | IC50 ([1]; Abs IC50, read-out: NanoBRET Abs IC50): 4.9 µM; IC50 ([1]; read-out: NanoBRET IC50): 5.6 µM; IC50 ([3]; Abs IC50, read-out: DLD1 reporter assay Abs IC50): 10.8 µM; IC50 ([3]; read-out: DLD1 4% Abs IC50, DLD1 4%, absolute IC50): 9.4 µM; IC50 [5, 12]: 23 nM; IC50 ([5]; read-out: FP EC50): 23 nM
CC(=O)N1CCC[C@]12CC=CCCCC1(CCCC=CCCCOC(=O)N3CC[C@@](C(=O)N[C@@H](Cc4ccsc4)C(=O)N[C@@H](Cc4csc5ccccc45)C(=O)N[C@@H](CCC(N)=O)C(N)=O)(C3)NC(=O)[C@H](CCO)NC(=O)[C@H](Cc3ccccc3)NC(=O)[C@H](C)NC(=O)[C@H](C)NC(=O)[C@H](CC(=O)O)NC(=O)[C@H](CC(=O)O)NC1=O)NC(=O)[C@H](CC(C)(C)C)NC(=O)[C@H](CC(=O)O)NC2=O (stereo partly drawn) [I-803, Ac-PL3-Asp-Npg-B5-Asp-Asp-Ala-Ala-Phe-Hse-PyrS2-3Thi-BztA-Gln-NH2] |  |  |  | 9 |  |  | 5 | 2.03 | IC50 ([1]; read-out: NanoBRET Abs IC50): 9.6 µM; IC50 ([1]; read-out: NanoBRET IC50): 9 µM; Solubility ([4]; Solubility (uM)): 40 µM (≈ 76.2 µg/mL)
CCN(CC(=O)O)C[C@@H]1NC(=O)[C@H](CC(=O)O)NC(=O)C2(CCCC=CCCCOC(=O)N3CC[C@@](C(=O)N[C@@H](Cc4ccsc4)C(=O)N[C@@H](Cc4csc5ccccc45)C(=O)N[C@@H](CCC(N)=O)C(N)=O)(C3)NC(=O)[C@H](CC(C)C)NC(=O)[C@H](Cc3ccccc3)NC(=O)[C@H](C)NC(=O)[C@H](C)NC1=O)CCCC=CC[C@]1(CCCN1C(C)=O)C(=O)N[C@@H](CC(=O)O)C(=O)N[C@@H](CC(C)(C)C)C(=O)N2 (stereo partly drawn) [I-973, Ac-PL3-Asp-Npg-B5-Asp-EtGA-Ala-Ala-Phe-Leu-PyrS2-3Thi-BztA-Gln-NH2] |  | 1.95 |  | 10.1 | 10 (≈ 19.7 µg/mL) | 1380 | 9 |  | 
CC(=O)N1CCC[C@]12CC=CCCCC1(CCCC=CCCCOC(=O)N3CC[C@@](C(=O)N[C@@H](CC(=O)O)C(=O)N[C@@H](Cc4csc5ccccc45)C(=O)N[C@@H](CCC(N)=O)C(N)=O)(C3)NC(=O)[C@H](CC(N)=O)NC(=O)[C@H](Cc3ccccc3)NC(=O)[C@H](C)NC(=O)[C@H](C)NC(=O)[C@H](CN(CC(=O)O)CC(F)(F)F)NC(=O)[C@H](Cc3ccsc3)NC1=O)NC(=O)[C@H](CC(C)(C)C)NC(=O)[C@H](CC(=O)O)NC2=O (stereo partly drawn) [I-1001, Ac-PL3-Asp-Npg-B5-3Thi-TfeGA-Ala-Ala-Phe-Asn-PyrS2-Asp-BztA-Gln-NH2] | > 20 |  | > 20 |  |  | 5530 | 7220 | 1.89 | Nano-BRET Abs IC50 (uM) [1, 13]: inactive; Nano-BRET Abs IC50 (uM) ([1]; Peptide only): inactive; TCF Reporter Assay Abs IC50 (uM) [3, 13]: inactive; TCF Reporter Assay Abs IC50 (uM) ([3]; Peptide only): inactive; DLD1 TCF c2 BrightGlo % Inhibition [3, 8]: −1.2% and 7.5% and 3.5%; DLD1 TCF c2 BrightGlo % Inhibition ([3]; 0.625 µM): −1.5% and 9.3% and 4.5%; DLD1 TCF c2 BrightGlo % Inhibition ([3]; 1.25 µM): −7.0% and −2.8% and 6.1%; DLD1 TCF c2 BrightGlo % Inhibition ([3]; 2.5 µM): −8.0% and −7.6% and −5.0%; DLD1 TCF c2 BrightGlo % Inhibition ([3]; 10 µM): −3.6% and −4.8% and −7.4%; DLD1 TCF c2 BrightGlo % Inhibition [3, 10]: −6.7% (2×) and −0.7%
CC(=O)N1CCC[C@]12CC=CCCCC1(CCCC=CCCCOC(=O)N3CC[C@@](C(=O)N[C@@H](Cc4ccccc4Cl)C(=O)N[C@@H](Cc4csc5ccccc45)C(=O)N[C@@H](CCC(N)=O)C(N)=O)(C3)NC(=O)[C@H](CC(N)=O)NC(=O)[C@H](Cc3ccccc3)NC(=O)[C@H](CC(C)C)NC(=O)[C@H](C)NC(=O)[C@H](CN(CC(=O)O)CC(F)(F)F)NC(=O)[C@H](CC(=O)O)NC1=O)NC(=O)[C@H](CC(C)(C)C)NC(=O)[C@H](CC(=O)O)NC2=O (stereo partly drawn) [I-1002, Ac-PL3-Asp-Npg-B5-Asp-TfeGA-Ala-Leu-Phe-Asn-PyrS2-2C1F-BztA-Gln-NH2] | 29.8 |  | > 20 |  |  |  | 9 | 2.6 | 
CC(=O)N1CCC[C@]12CC=CCCCC1(CCCC=CCCCCCC[C@@](C)(C(=O)N[C@@H](Cc3ccccc3Cl)C(=O)N[C@@H](Cc3csc4ccccc34)C(=O)N[C@@H](CCC(N)=O)C(N)=O)NC(=O)[C@H](CC(C)C)NC(=O)[C@H](Cc3ccccc3)NC(=O)[C@H](C)NC(=O)[C@H](C)NC(=O)[C@H](CC(=O)O)NC(=O)[C@H](CC(=O)O)NC1=O)NC(=O)[C@H](CC(C)(C)C)NC(=O)[C@H](CC(=O)O)NC2=O (stereo partly drawn) [I-1095, Ac-PL3-Asp-Npg-B5-Asp-Asp-Ala-Ala-Phe-Leu-S8-2C1F-BztA-Gln-NH2] | > 20 |  | > 20 |  |  |  | 15 | 3.09 | 
CC(=O)N1CCC[C@]12CC=CCCCC1(CCCC=CCCCOC(=O)N3CC[C@@](C(=O)N[C@@H](Cc4ccccc4C(F)(F)F)C(=O)N[C@@H](Cc4csc5ccccc45)C(=O)N[C@@H](CCC(N)=O)C(N)=O)(C3)NC(=O)[C@H](Cc3ccccc3)NC(=O)[C@H](Cc3ccccc3)NC(=O)[C@H](C)NC(=O)[C@H](C)NC(=O)[C@H](CC(=O)O)NC(=O)[C@H](CC(=O)O)NC1=O)NC(=O)[C@H](CC(C)(C)C)NC(=O)[C@H](CC(=O)O)NC2=O (stereo partly drawn) [I-1319, Ac-PL3-Asp-Npg-B5-Asp-Asp-Ala-Ala-Phe-Phe-PyrS2-2F3MeF-BztA-Gln-NH2] | 4.2 |  |  |  | 10 (≈ 20.1 µg/mL) |  |  |  | IC50 ([3]; read-out: DLD1 4% Abs IC50, DLD1 reporter, 4%, absolute IC50): 2.1 µM; IC50 [5, 12]: 10 nM
